# Results reported in patent publication US20060264442A1, “Methods for the treatment of ocular and neurodegenerative conditions in a mammal” (Allergan, Inc., priority 2005, published 2006).
# Tests used:
# retinal ganglion cells [1] = test: Partial optic nerve (ON) injury model, retinal ganglion cell count; format: in vivo, Sprague Dawley rats; conditions: for RGC survival / protective effect: count at twelve days
# Description: (§1) All procedures were conducted following AACUC protocols. Rats were anesthetized by intramuscular administration of Ketamine/Xylazine/Acepromazine/Saline cocktail, 5/2.5/1/1.5, milliliters respectively, at 1 ml/Kg.
# Sprague Dawley rats weighing 300-350 g were used in this experiment. They were anesthetized with the above anesthetic cocktail and ON injury was applied. […] The tissues around the optic nerve were kept away from the optic nerve using jaw opening forceps. Calibrated forceps was put around the nerve about 3 to 4 mm from the globe and held for 30 seconds. The forceps were then removed, and the eyes treated with topical antibiotics at the site of incision. Drugs were then administered at selected doses via IP. Control animals received vehicle.
# (§2) The effect of ON injury and elevated IOP on ganglion cells was determined by evaluating ganglion cell loss in whole mounted retinas. At the end of twelve days for ON injured and three months for COHT animals the ganglion cells were labeled by retrograde transport of Dextran Tetramethyl Rhodamine (DTMR, Molecular Probes, OR). […] A longitudinal cut (<1 mm) was made at about 3-4 mm distal from the globe. The optic nerve was sectioned and DTMR crystals were applied at the cut end. Twenty four hours after labeling the animals were euthanized and the eyes enucleated and fixed for 2 hours with 4% paraformaldehyde, then the retinas were removed and whole mounted. Cell counts were done using a Nikon microscope under fluorescent light with Rhodamine filter at 400×. Eight to sixteen regions were counted. Ganglion cell loss was calculated as percentage loss compared to unlasered control. Percent protection was calculated by comparing drug treated to vehicle treated eyes. Statistical analysis was done using two-tail student's t-test.
# retinal ganglion cells [2] = test: COHT model, retinal ganglion cell count; format: in vivo, Wistar rats
# Description: (§3) Wistar rats weighing 400-475 grams were used. The rats were anesthetized and ocular hypertension was induced by laser photocoagulation of the outflow pathway (mainly episcleral and limbal veins) using a Coherent Argon Laser (Coherent Novus 2000). The number of spots was approximately 150 after two laser treatments with one week interval. IOP was measured using Tono-Pen XL (Mentor O&O). Measurements were done prior to laser treatments to determine baseline and subsequent readings were done weekly.
# as §2
# [3] = COHT model, ERG evaluation of retinal function; format: in vivo, Wistar rats; conditions: topical 0.015% twice a day, at the end of 90 days
# Description: as §3
# Electroretinographic evaluation of the retina was done only to OHT animals. The retinal function was measured 90 days after first laser treatment and prior retinal labeling. LKC system was used with the following parameters: low and high cut filters 0.3 and 500 Hz respectively, number of runs per sample were 10, flash intensity was −30, −20, −10 and −4 dB, Notch filter was off. Data analysis including OP's extraction from flash ERG was done using the system's software and noise was filtered prior calculation. Data represents the average of 5 animals.
# At the end of 90 days retinal function was measured using electroretinography (ERG). […] Similarly the oscillatory potential responses were also preserved by prazosin treatment (FIG. 6).
# [4] = Chronic ocular hypertension (COHT) model, IOP measurement; format: in vivo, Wistar rats; conditions: topical 0.015% twice a day for 90 days, compared to vehicle treated eyes
# Description: as §1, §3
# In this model prazosin was tested after topical application of 0.015% twice a day for 90 days. […] The IOP level reached a steady state after 40 days and it was maintained for the rest of the experimental period.
structure (smiles),measurement,setting,value
"COc1ccccc1N1CCN(CCCNc2c(C)c(=O)n(C)c(=O)n2C)CC1 [5-methyl-Urapedil, 5-methylurapadil]",RGC survival / protective effect,retinal ganglion cells [1]; 10 μg/kg IP,no protective effect
"Brc1c(NC2=NCCN2)ccc2nccnc12 [Brimonidine, brimonidine]",RGC protection in COHT model (comparison in words),retinal ganglion cells [2]; dose not given,comparable to what we have observed with Brimonidine
same,RGC survival / protective effect,retinal ganglion cells [1]; 100 μg/kg IP,protective action of Prazosine is similar to that of Brimonidine
"COc1cc2nc(N3CCN(C(=O)c4ccco4)CC3)nc(N)c2cc1OC [Prazosine, prazosin]",ERG A and B wave amplitudes,[3],In vehicle treated animals both A and B wave amplitudes were smaller than those treated with prazosin
same,Oscillatory potential responses,[3],preserved
same,Protection of RGC compared to vehicle treated group,"retinal ganglion cells [2]; 0.015% topical, three months of IOP elevation",46%
same,RGC decrease,"retinal ganglion cells [2]; 0.015% topical, three months of IOP elevation, loss compared to unlasered control",20%
same,Elevation of IOP,[4],attenuated the elevation of IOP
same,RGC survival / protective effect,retinal ganglion cells [1]; 10 μg/kg IP,almost two fold increase in RGC survival
"COc1cc2nc(N3CCN(C(=O)C4CCCO4)CC3)nc(N)c2cc1OC (stereo not drawn) [Terazosine, terazosin]",RGC protection,retinal ganglion cells [1]; 0.1 μg/kg IP,Protection was observed
same,RGC protection,retinal ganglion cells [1]; 1.0 μg/kg IP,maximum effect
same,RGC survival / protective effect,retinal ganglion cells [1]; 10 μg/kg IP,no effect
